# Test results: ChEMBL document CHEMBL1137686, “Synthesis and anticonvulsant activity of new N-[(4-arylpiperazin-1-yl)-alkyl] derivatives of 3-phenyl-pyrrolidine-2,5-dione” (Eur J Med Chem, 2009)
# Active and inactive are the calls of the source. The calls are words filed in the database; no cut-off is given here.
# Tests used:
# Mus musculus [1] = experiment: Anticonvulsant activity in ip dosed CF1 albino mouse assessed as inhibition of maximal electroshock-induced seizures after 0.5 hrs; format: functional
# Mus musculus [2] = experiment: Anticonvulsant activity in CF1 albino mouse assessed as protection against maximal electroshock-induced seizures at 30 mg/kg, ip after 2 hrs; format: functional; conditions: route intraperitoneal
# Mus musculus [3] = experiment: Anticonvulsant activity in CF1 albino mouse assessed as protection against maximal electroshock-induced seizures at 30 mg/kg, po after 2 hrs; format: functional
# Mus musculus [4] = experiment: Neurotoxicity in CF1 albino mouse assessed as motor impairment at 30 mg/kg, po after 0.25 hrs by rotarod test; format: toxicity, organism-based; parameters: dose 30 mg/kg, route oral; conditions: in vivo
# Mus musculus [5] = experiment: Anticonvulsant activity in ip dosed CF1 albino mouse assessed as inhibition of maximal electroshock-induced seizures after 4 hrs; format: functional
# Mus musculus [6] = experiment: Anticonvulsant activity in CF1 albino mouse assessed as protection against maximal electroshock-induced seizures at 30 mg/kg, ip after 0.5 hrs; format: functional; conditions: route intraperitoneal
# Mus musculus [7] = experiment: Neurotoxicity in CF1 albino mouse assessed as occurance of tremors at 300 mg/kg, ip after 0.5 hrs by rotarod test; format: toxicity, organism-based; parameters: dose 300 mg/kg, route intraperitoneal; conditions: in vivo
# Mus musculus [8] = experiment: Anticonvulsant activity in CF1 albino mouse assessed as protection against maximal electroshock-induced seizures at 30 mg/kg, po after 0.5 hrs; format: functional
# Mus musculus [9] = experiment: Neurotoxicity in CF1 albino mouse assessed as motor impairment at 30 mg/kg, po after 1 hr by rotarod test; format: toxicity, organism-based; parameters: dose 30 mg/kg, route oral; conditions: in vivo
# Mus musculus [10] = experiment: Anticonvulsant activity in CF1 albino mouse assessed as protection against maximal electroshock-induced seizures at 30 mg/kg, po after 4 hrs; format: functional
# Mus musculus [11] = experiment: Neurotoxicity in CF1 albino mouse assessed as motor impairment at 30 mg/kg, po after 0.5 hrs by rotarod test; format: toxicity, organism-based; parameters: dose 30 mg/kg, route oral; conditions: in vivo
# Mus musculus [12] = experiment: Neurotoxicity in CF1 albino mouse assessed as motor impairment at 30 mg/kg, po after 2 hrs by rotarod test; format: toxicity, organism-based; parameters: dose 30 mg/kg, route oral; conditions: in vivo
# Mus musculus [13] = experiment: Anticonvulsant activity in CF1 albino mouse assessed as protection against maximal electroshock-induced seizures at 30 mg/kg, ip after 4 hrs; format: functional; conditions: route intraperitoneal
# Mus musculus [14] = experiment: Neurotoxicity in CF1 albino mouse assessed as ability to maintain equilibrium for 1 min on […] at 300 mg/kg, ip after 4 hrs by rotarod test; format: toxicity, organism-based; parameters: dose 300 mg/kg, route intraperitoneal; conditions: in vivo
# Mus musculus [15] = experiment: Neurotoxicity in CF1 albino mouse assessed as motor impairment at 30 mg/kg, ip after 0.5 hrs by rotarod test; format: toxicity, organism-based; parameters: dose 30 mg/kg, route intraperitoneal; conditions: in vivo
# Mus musculus [16] = experiment: Anticonvulsant activity in CF1 albino mouse assessed as protection against maximal electroshock-induced seizures at 30 mg/kg, ip after 1 hr; format: functional; conditions: route intraperitoneal
# Mus musculus [17] = experiment: Anticonvulsant activity in CF1 albino mouse assessed as protection against maximal electroshock-induced seizures at 30 mg/kg, po after 0.25 hrs; format: functional
# Mus musculus [18] = experiment: Neurotoxicity in CF1 albino mouse assessed as ability to grasp rotarod at 300 mg/kg, ip after 0.5 hrs by rotarod test; format: toxicity, organism-based; parameters: dose 300 mg/kg, route intraperitoneal; conditions: in vivo
# Mus musculus [19] = experiment: Neurotoxicity in ip dosed CF1 albino mouse assessed as ability to maintain equilibrium for 1 min on […] after 0.5 hrs by rotarod test; format: toxicity, organism-based; conditions: in vivo
# Mus musculus [20] = experiment: Neurotoxicity in CF1 albino mouse assessed as death at 300 mg/kg, ip after 0.5 hrs by rotarod test; format: toxicity, organism-based; parameters: dose 300 mg/kg, route intraperitoneal; conditions: in vivo
# Mus musculus [21] = experiment: Neurotoxicity in CF1 albino mouse assessed as motor impairment at 30 mg/kg, po after 4 hrs by rotarod test; format: toxicity, organism-based; parameters: dose 30 mg/kg, route oral; conditions: in vivo
# Mus musculus [22] = experiment: Anticonvulsant activity in CF1 albino mouse assessed as protection against maximal electroshock-induced seizures at 30 mg/kg, ip after 0.25 hrs; format: functional; conditions: route intraperitoneal
# Mus musculus [23] = experiment: Anticonvulsant activity in CF1 albino mouse assessed as protection against maximal electroshock-induced seizures at 30 mg/kg, po after 1 hr; format: functional
# Mus musculus [24] = experiment: Neurotoxicity in CF1 albino mouse assessed as motor impairment at 30 mg/kg, ip after 4 hrs by rotarod test; format: toxicity, organism-based; parameters: dose 30 mg/kg, route intraperitoneal; conditions: in vivo
# Mus musculus [25] = experiment: Neurotoxicity in CF1 albino mouse assessed as motor impairment at 30 mg/kg, ip after 0.25 hrs by rotarod test; format: toxicity, organism-based; parameters: dose 30 mg/kg, route intraperitoneal; conditions: in vivo
structure (smiles),measurement,setting,value
Cc1ccccc1C1CC(=O)N(CN2CCN(c3cccc(C(F)(F)F)c3)CC2)C1=O (stereo not given),Activity,Mus musculus [1],30 mg/kg
same,Activity,Mus musculus [2],50%
same,Activity,Mus musculus [3],25%
same,Activity,Mus musculus [4],50%
same,Activity,Mus musculus [5],30 mg/kg
same,Activity,Mus musculus [6],50%
same,Activity,Mus musculus [7],Toxic
same,Activity,Mus musculus [8],inactive
same,Activity,Mus musculus [9],Non-toxic
same,Activity,Mus musculus [10],50%
same,Activity,Mus musculus [11],25%
same,Activity,Mus musculus [12],Non-toxic
same,Activity,Mus musculus [13],50%
same,Activity,Mus musculus [14],Non-toxic
same,Activity,Mus musculus [15],Toxic
same,Activity,Mus musculus [16],100%
same,Activity,Mus musculus [17],inactive
same,Activity,Mus musculus [18],Toxic
same,Activity,Mus musculus [19],300 mg/kg
same,Activity,Mus musculus [20],Toxic
same,Activity,Mus musculus [21],Non-toxic
same,Activity,Mus musculus [22],50%
same,Activity,Mus musculus [23],50%
same,Activity,Mus musculus [24],Non-toxic
same,Activity,Mus musculus [25],Toxic
